Experimental data reported in patent publication US20260325485A1, “COMPOSITIONS AND METHODS FOR TREATING PANCREATITIS” (The United States Government as represented by the …, priority 2022, published 2026).

Tests used:
pancreas = assay: Pancreatic total cholesterol and lipids in acute pancreatitis models in WT mice; assay type: in vivo, mouse; conditions: Arg-AP, CER-AP or CDE-AP
Procedure: FIGS. 8A-8M show derangement of cholesterol metabolism in experimental pancreatitis. Characteristics of cholesterol metabolism were measured, as detailed in FIGS. 4A-4R, in pancreas of WT mice subjected to pancreatitis induced with cerulein (CER-AP), L-arginine (Arg-AP), or CDE diet (CDE-AP) (A, B, and E-G); ex vivo pancreatitis induced in WT mouse (C and I-M) or human acinar cells (D) with 100 nM CCK (CCK-AP) or 1 mM carbachol; and isolated pancreatic mitochondria (H). (B) Cholesterol ester (CE) heatmap; each column represents an individual mouse. (F) IB analysis of the indicated proteins. (G) LAL activity was measured by a fluorogenic assay (n=6 mice per condition). (H) Cholesterol content was measured by enzymatic assay. (I-M) Filipin colocalization with indicated proteins was quantified as detailed in FIGS. 2A-2L. Each symbol in A, C-E, and H represents an individual mouse, or cell or mitochondria preparation (n=3-15 per condition). Each symbol in J, K, and M corresponds to 20-30 cells in a different field (n=10-20 fields from 3 cell preparations per condition). Values are mean±SEM. *P<0.05, **P<0.01, ***P<0.001 vs. the same parameter in control/untreated pancreas, acinar cells or isolated mitochondria. Significance was determined by 2-tailed Student's t test (B, E, H, J, K, and M) or 1-way ANOVA followed by Tukey's multiple comparison test (A, C, and D). Scale bars: 10 μm.
Parameters of cholesterol metabolism were measured in (A, B, E, F) pancreas of mice subjected to pancreatitis induced with cerulean (CER-AP), L-arginine (Arg-AP), or combination of EtOH+palmitoleic acid (EtOH+POA); and (C) ex-vivo models on mouse and human acinar cells treated for 1 h with 100 nM CCK, […] or 500 μM TLCS. […] (B, C) Total cholesterol content was measured with cholesterol assay kit (Abcam, ab65390). […] Signficance was determined by 2-tailed student's t test. […]
Total cholesterol content was measured with Cholesterol Assay kit per manufacturer's instructions. […]
Triglycerides (TAG) content was measured using Triglyceride Assay kit. […]

LC3-II = assay: Autophagic flux analysis: LC3-II immunoblot in pancreatic acinar cells; assay type: cell-based, mouse; conditions: 30 minutes
Procedure: FIGS. 2A-2L show Gnptab ablation stimulates autophagosome formation and blocks autophagic flux in pancreatic acinar cells. Parameters of autophagy were measured in WT and […] pancreatic (A-C) acinar cells and (D-L) tissue. (A-C) Acinar cells incubated for 30 minutes with and without bafilomycin A1 (BafA1; 20 nM); LC3-II band intensity was quantified by densitometry, normalized to ERK in the same sample, and LC3-II/ERK ratios further normalized to untreated WT cells (control). Values are mean±SEM; each symbol represents an individual cell preparation (n=4-6 per condition). sP<0.05; paired 2-tailed Student's t test. (D) IB analysis of autophagic markers/mediators. Ub, ubiquitylated proteins. (E-K) Immunofluorescence colocalization analysis for LC3 and LAMP1 (E, G, and H), and LC3 and Stx17 (F and I-K) in WT and KO pancreas. In this and other figures, colocalization was quantified with Volocity software using Manders-Costes (percentage colocalization) and Pearson's coefficients. Values are mean±SEM; each symbol corresponds to 20 to 30 cells in a different field (n=6-9 fields from 3 mice per condition). ***P<0.001 vs. WT; 2-tailed Student's t test. (L). EM showing abnormally large autolysosomes with partially degraded material in pancreas of KO mice. Scale bars: 10 μm (E and F) and 3 μm (L).
To further assess the effects of Gnptab KO on autophagy, autophagic flux analysis was performed by measuring changes in LC3-II in acinar cells incubated with and without the lysosomal v-ATPase inhibitor, bafilomycin A1 (BafA1) (FIG. 2, A-C). The number of autophagic vacuoles in a cell is a net balance between autophagosome formation and their degradation through autophagic flux. Thus, the increase in LC3-II observed in KO pancreas (FIG. 1F and FIG. 2D; see also FIG. 17G) could have resulted from both induction of autophagosome formation and the inhibition of flux. […]
Immunoblots were developed using enhanced chemiluminescence detection kit (Pierce), and band intensities were quantified by densitometry using FluorChem HD2 imaging system (Alpha Innotech/ProteinSimple).

trypsin = assay: Trypsin activity in Gnptab−/− acinar cells; assay type: cell-based, mouse; conditions: 3 hours; 50 μM CA-074Me or 20 nM BafA1
Procedure: FIGS. 6A-6R show mechanisms mediating increased trypsin activity in Gnptab−/− pancreas. Trypsin activity and its regulation were analyzed in pancreatic (A, C, and D) tissue, (B and P-R) acinar cells, (E-H and O) lobules, and (I-N) subcellular fractions. In B, acinar cells were incubated for 3 hours without and with 20 nM BafAl or 50 μM CatB inhibitor CA-074Me; in P-R, with the cholesterol chelator methyl-β-cyclodextrin (MCD) at the indicated concentrations. In E-H, pancreatic lobules were double stained for TAP and LC3 or LAMP2; in O, for TAP and filipin. Quantitative colocalization analysis was done as detailed in FIG. 2. Each symbol in A, B, J-N, Q, and R represents an individual mouse or cell preparation (n=3-8 per condition). Each symbol in D, G, and H corresponds to 20 to 30 cells in a different field (n=9-20 fields from 3 WT and 3 KO mice or lobule preparations). Values are mean±SEM. **P<0.01, ***P<0.001 vs. WT tissue/lobules (A, G, and H) or corresponding WT subcellular fraction (K and M). ##P<0.01 vs. no inhibitors (B) or MCD (Q and R). ††P<0.01, †††P<0.001 vs. the other two fractions (L and N). Significance was determined by 2-tailed Student's t test (A, G, and H) or 1-way ANOVA followed by Tukey's multiple comparison test (B, K-N, Q, and R). Scale bars: 10 μm.
Activities of cathepsin (Cat) B and L, caspase-3, trypsin, and lysosomal acid lipase (LAL) were measured in pancreatic tissue or cell homogenates and subcellular fractions with fluorogenic assays using substrates specific for CatB (Z-Arg-Arg-AMC), CatL (Z-Phe-Arg-AMC), caspase-3-like ([…]), trypsin (Boc-Gln-Ala-Arg-AMC), as previously described (1-4, 6, 7); and for LAL (4-methylumbelliferyl oleate), as in (17). In measurements of CatL activity, the assay buffer also contained 50 μM CA-074me, a CatB inhibitor. LAL activity was measured in the absence and presence of the LAL inhibitor lalistat (100 μM) as the difference between these values (17).

neutral lipids = assay: BODIPY 493/503 staining of neutral lipids in acinar cells; assay type: cell-based, mouse; conditions: BafA1 20 nM
Procedure: FIGS. 13A-13G show neutral lipids accumulate in LE/Ly and autophagic compartments of Gnptab^−/− pancreas. Characteristics of neutral lipid metabolism were measured in (A-C,F,G) pancreatic tissue of WT, Gnptab^−/− (KO) and Atg5^Δpan mice, and (D,E) WT and KO acinar cells treated with Bafilomycin A1 (BafA1; 20 nM). (A) EM showing lipid inclusions in KO pancreas. (B-E) Tissue or cells were stained with BODIPY 493/503 for neutral lipids; BODIPY fluorescence intensity was quantified with Volocity software, normalized to the number of nuclei (DAPI) in the field, and expressed relative to WT control. […] (F,G) Perilipins (PLINs) were analyzed by immunoblot; their band intensities were densitometrically quantified, normalized to GAPDH in the same sample and, further, to WT. […] Significance was determined by 2-tailed Student's t test (G) or 1-way ANOVA followed by Tukey's multiple comparisons test (C,E). […]
All fluorescence images were acquired with a Zeiss LSM710 confocal microscope using x63 objective and preset within-experiment image acquisition settings. Quantitative fluorescence analysis was performed with Volocity software (PerkinElmer). Overlap between 2 fluorescent labels was measured using Manders-Costes coefficient. Pearson's colocalization coefficient was calculated if both immunolabeled proteins had the same (e.g. “dotted”) staining pattern.

| SMILES | pancreatic total cholesterol, AP models (pancreas) | LC3-II levels in KO compared with WT in presence of BafA1 (LC3-II; BafA1 20 nM, Gnptab−/− vs WT acinar cells) | LC3-II increase by BafA1, KO (LC3-II; Gnptab−/− (KO) acinar cells, 20 nM) | LC3-II increase by BafA1, WT (LC3-II; WT acinar cells, 20 nM) | Reduction of trypsin activity, Gnptab−/− acinar cells (trypsin) | BODIPY staining, KO (neutral lipids; Gnptab−/− acinar cells) | BODIPY staining increase, WT (neutral lipids; WT acinar cells) |
| --- | --- | --- | --- | --- | --- | --- | --- |
| N=C(N)NCCC[C@H](N)C(=O)O [L-arginine] | increases | – | – | – | – | – | – |
| CO/C1=C\C(C)=C\[C@@H](C)[C@@H](O)[C@@H](C)C/C(C)=C/C=C/[C@H](OC)[C@@H]([C@@H](C)[C@@H](O)[C@H](C)[C@@]2(O)C[C@@H](O)[C@H](C)[C@@H](C(C)C)O2)OC1=O [BafA1, bafilomycin A1] | – | approximately 11 fold | no increase | approximately 4 fold | by half | no additional effect | approximately 3 fold |
